Results taken from patent publication US4545993A, “1,2-Benzopyran-6-yl acetic acid compound and pharmaceutical compositions containing said compounds” (priority 1981, dated 1985).

How the values were obtained:
[1] = tested on: pseudopain reactions (dd mice); experiment: Analgesic effects by a modified Haffner method; format: in vivo; settings: oral, with 2 mg/Kg morphine hydrochloride s.c.
Experimental: Groups of 10 dd mice were orally administered the examined drugs and 30 minutes later 2 mg/Kg of morphine hydrochloride, the threshhold dose, was subcutaneously injected. At 15, 30, 45 and 60 minute intervals thereafter, the root of the mouse's tail was squeezed with a Kocher's forcepts.

[2] = Acute toxicity, oral, number of deaths up to 72 hours; settings: mouse, in vivo
Experimental: Groups of 10 male dd mice weighing some 18 g, were orally administered 800 mg/Kg of each of the examined drugs and the number of deaths up to 72 hours later was recorded.

[3] = tested on: stretching after acetic acid (male dd mice); experiment: Analgesic effects by acetic acid writhing test; format: in vivo; settings: oral, 0.6% acetic acid i.p.
Experimental: Thirty minutes after the examined drug was orally given, 0.1 ml/10 g of 0.6% acetic acid was intraperitoneally administered to groups of 10 male dd mice weighing some 18 g. The number of stretching was calculated during an observation period of 15 to 20 minutes after acetic acid treatment. The average inhibition rate of stretching among 8 animals was regarded as the inhibition rate of the drug, excluding 2 animals showing maximum and minimum numbers of stretching.

[4] = 800 mg/Kg, oral, male dd mice, up to 72 hours

Compound | Analgesic effects (modified Haffner method) ([1]; 50 mg/Kg) | Analgesic effects (modified Haffner method) ([1]; 100 mg/Kg) | mortality at 72 h [2, 4] | Analgesic effects (acetic acid writhing test; average inhibition rate of stretching) ([3]; 50 mg/Kg) | Analgesic effects (acetic acid writhing test; average inhibition rate of stretching) ([3]; 100 mg/Kg) | mortality at 72 h ([2]; po, 800 mg/kg)
O=C(O)Cc1cc(Cl)c2c(c1)C=CCO2 [Compound 5, (8-Chloro-1,2-benzopyran-6-yl)acetic acid] | 35% | 70% | – | – | – | –
Cc1c(N(C)C)c(=O)n(-c2ccccc2)n1C [Aminopyrine, reference compound] | 20% | 55% | 80% | 18% | 57% | –
CC(C(=O)O)c1ccc2c(c1)C=CC(C)(C)O2 (centres unmarked) [Compound 2, 2-(2,2-Dimethyl-1,2-benzopyran-6-yl)propionic acid] | 25% | 50% | 0% | 44% | 76% | –
CCCCC1C(=O)N(c2ccccc2)N(c2ccccc2)C1=O [Phenylbutazone, reference compound] | – | – | – | – | – | 60%
CC(C(=O)O)c1cc(Cl)c2c(c1)C=CCO2 (centres unmarked) [Compound 4, 2-(8-Chloro-1,2-benzopyran-6-yl)propionic acid] | 30% | 55% | 30% | 36% | 61% | –
CC(C(=O)O)c1cc(Cl)c2c(c1)C=CC(C)(C)O2 (centres unmarked) [Compound 3, 2-(2,2-Dimethyl-8-chloro-1,2-benzopyran-6-yl)propionic acid] | 20% | 65% | 0% | – | – | –
CC(C(=O)O)c1cc(F)c2c(c1)C=CC(C)(C)O2 (centres unmarked) [Compound 1, 2-(2,2-dimethyl-8-fluoro-1,2-benzopyran-6-yl)propionic acid] | 40% | 70% | 0% | 59% | 76% | –
CC(C(=O)O)c1cc(Cl)c2c(c1)CCC(C)(C)O2 (centres unmarked) [Compound 6, 2-(2,2-dimethyl-8-chlorochroman-6-yl)propionic acid] | 30% | 60% | 30% | 27% | 68% | –
CC(C(=O)O)c1cc(Cl)c2c(c1)CCCO2 (centres unmarked) [Compound 7, 2-(8-Chlorochroman-6-yl)propionic acid] | – | – | 0% | – | – | –
